Experimental data taken from patent US10251395B2, “Substituted furano-/thienocycloalkylamino-2-pyrimidine derivatives and use thereof for controlling undesired plant growth” (Bayer CropScience Aktiengesellschaft, priority 2015, dated 2019).

Assays:
Abutilon theophrasti [1] = assay: Pre-emergence herbicidal effect; assay type: in vivo; settings: Dosage 320 g/ha, scored visually after 3 weeks
Method in brief: (§1)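 Pre-em soil-surface spray; sandy loam, seeds covered with soil. WP/EC, aq. suspension/emulsion, 600–800 L/ha, +0.2% wetting agent. GH 3 wk; visual % activity vs untreated (100% = dead).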

Alopecurus myosuroides [2] = assay: Pre-emergence herbicidal effect; assay type: in vivo; settings: scored visually after 3 weeks
Method in brief: as §1

Amaranthus retroflexus [3] = assay: Pre-emergence herbicidal effect; assay type: in vivo; settings: scored visually after 3 weeks
Method in brief: as §1

Lolium multiflorum [4] = assay: Pre-emergence herbicidal effect; assay type: in vivo; settings: scored visually after 3 weeks
Method in brief: as §1

Matricaria inodora [5] = assay: Pre-emergence herbicidal effect; assay type: in vivo; settings: scored visually after 3 weeks
Method in brief: as §1

Polygonum convolvulus [6] = assay: Pre-emergence herbicidal effect; assay type: in vivo; settings: scored visually after 3 weeks
Method in brief: as §1

Setaria viridis [7] = assay: Pre-emergence herbicidal effect; assay type: in vivo; settings: scored visually after 3 weeks
Method in brief: as §1

Stellaria media [8] = assay: Pre-emergence herbicidal effect; assay type: in vivo; settings: scored visually after 3 weeks
Method in brief: as §1

Veronica persica [9] = assay: Pre-emergence herbicidal effect; assay type: in vivo; settings: scored visually after 3 weeks
Method in brief: as §1

Viola tricolor [10] = assay: Pre-emergence herbicidal effect; assay type: in vivo; settings: scored visually after 3 weeks
Method in brief: as §1

Alopecurus myosuroides [11] = assay: Post-emergence herbicidal effect; assay type: in vivo; settings: 320 g/ha, assessed visually after about 3 weeks vs untreated controls
Method in brief: (§2)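 Herbicidal effect was rated visually roughly 3 weeks after foliar treatment, as % versus untreated plants, with 0% meaning the same as controls and 100% meaning dead. Plants were treated at the one-leaf stage in the greenhouse with aqueous WP or EC sprays at 600–800 L/ha containing 0.2% wetter.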

Viola tricolor [12] = assay: Post-emergence herbicidal effect; assay type: in vivo; settings: assessed visually after about 3 weeks vs untreated controls
Method in brief: as §2

Echinochloa crus-galli [13] = assay: Pre-emergence herbicidal effect; assay type: in vivo; settings: scored visually after 3 weeks
Method in brief: as §1

Abutilon theophrasti [14] = assay: Post-emergence herbicidal effect; assay type: in vivo; settings: assessed visually after about 3 weeks vs untreated controls
Method in brief: as §2

Amaranthus retroflexus [15] = assay: Post-emergence herbicidal effect; assay type: in vivo; settings: assessed visually after about 3 weeks vs untreated controls
Method in brief: as §2

Echinochloa crus-galli [16] = assay: Post-emergence herbicidal effect; assay type: in vivo; settings: 320 g/ha, assessed visually after about 3 weeks vs untreated controls
Method in brief: as §2

Stellaria media [17] = assay: Post-emergence herbicidal effect; assay type: in vivo; settings: assessed visually after about 3 weeks vs untreated controls
Method in brief: as §2

Veronica persica [18] = assay: Post-emergence herbicidal effect; assay type: in vivo; settings: assessed visually after about 3 weeks vs untreated controls
Method in brief: as §2

logP (HCOOH) = assay type: physicochemical; settings: HCOOH
From the text: Table 2 (physicochemical characterization of selected synthesis examples)

Avena fatua = assay: Pre-emergence herbicidal effect; assay type: in vivo; settings: Dosage 320 g/ha, scored visually after 3 weeks
Method in brief: as §1

Ipomoea purpurea = assay: Post-emergence herbicidal effect; assay type: in vivo; settings: assessed visually after about 3 weeks vs untreated controls
Method in brief: as §2

Lolium multiflorum [19] = assay: Post-emergence herbicidal effect; assay type: in vivo; settings: assessed visually after about 3 weeks vs untreated controls
Method in brief: as §2

Matricaria inodora [20] = assay: Post-emergence herbicidal effect; assay type: in vivo; settings: assessed visually after about 3 weeks vs untreated controls
Method in brief: as §2

Polygonum convolvulus [21] = assay: Post-emergence herbicidal effect; assay type: in vivo; settings: assessed visually after about 3 weeks vs untreated controls
Method in brief: as §2

Setaria viridis [22] = assay: Post-emergence herbicidal effect; assay type: in vivo; settings: 320 g/ha, assessed visually after about 3 weeks vs untreated controls
Method in brief: as §2

SMILES	ALOMY pre-emergence efficacy (herbicidal activity) (Alopecurus myosuroides [2]; Dosage 320 g/ha)	AMARE pre-emergence efficacy (herbicidal activity) (Amaranthus retroflexus [3]; Dosage 80 g/ha)	AMARE pre-emergence efficacy (herbicidal activity) (Amaranthus retroflexus [3]; Dosage 320 g/ha)	LOLMU pre-emergence efficacy (herbicidal activity) (Lolium multiflorum [4]; Dosage 320 g/ha)	MATIN pre-emergence efficacy (herbicidal activity) (Matricaria inodora [5]; Dosage 80 g/ha)	MATIN pre-emergence efficacy (herbicidal activity) (Matricaria inodora [5]; Dosage 320 g/ha)	POLCO pre-emergence efficacy (herbicidal activity) (Polygonum convolvulus [6]; Dosage 320 g/ha)	SETVI pre-emergence efficacy (herbicidal activity) (Setaria viridis [7]; Dosage 320 g/ha)	STEME pre-emergence efficacy (herbicidal activity) (Stellaria media [8]; Dosage 80 g/ha)	STEME pre-emergence efficacy (herbicidal activity) (Stellaria media [8]; Dosage 320 g/ha)	VERPE pre-emergence efficacy (herbicidal activity) (Veronica persica [9]; Dosage 80 g/ha)	VERPE pre-emergence efficacy (herbicidal activity) (Veronica persica [9]; Dosage 320 g/ha)	VIOTR pre-emergence efficacy (herbicidal activity) (Viola tricolor [10]; Dosage 80 g/ha)	VIOTR pre-emergence efficacy (herbicidal activity) (Viola tricolor [10]; Dosage 320 g/ha)	post-emergence efficacy ALOMY (Alopecurus myosuroides [11])	post-emergence efficacy VIOTR (Viola tricolor [12]; 320 g/ha)	post-emergence efficacy ABUTH (Abutilon theophrasti [14]; 320 g/ha)	post-emergence efficacy AMARE (Amaranthus retroflexus [15]; 320 g/ha)	post-emergence efficacy STEME (Stellaria media [17]; 320 g/ha)	post-emergence efficacy VERPE (Veronica persica [18]; 320 g/ha)	also measured
Cc1cc2c(o1)CCCC2Nc1ncc(C(F)(F)F)c(N)n1 (racemic) [compound 28]	90%	100%	100%	100%	90%	100%	100%	100%	100%	100%	100%	100%	90%	100%	100%	90%					ABUTH pre-emergence efficacy (herbicidal activity) (Abutilon theophrasti [1]): 80%
CS(=O)(=O)c1cnc(NC2CCCc3ccsc32)nc1N (racemic) [compound 69]	80%	100%	100%	100%	100%	100%	100%	100%	100%	100%	100%	100%	100%	100%	80%	100%	80%	90%	90%	80%	ABUTH pre-emergence efficacy (herbicidal activity) (Abutilon theophrasti [1]): 100%; ECHCG pre-emergence efficacy (herbicidal activity) (Echinochloa crus-galli [13]; Dosage 320 g/ha): 100%; post-emergence efficacy AMARE (Amaranthus retroflexus [15]; 80 g/ha): 20%; post-emergence efficacy ECHCG (Echinochloa crus-galli [16]): 80%; post-emergence efficacy VIOTR (Viola tricolor [12]; 80 g/ha): 80%; logP (HCOOH) (logP (HCOOH)): solid; m.p.: 129.9° C.; logP (HCOOH): 1.86; 1H NMR (CDCl3, 400 MHZ, δ in ppm): ):
Cc1cc2c(s1)CCCC2Nc1ncc(SC(F)(F)F)c(C)n1 (racemic) [compound 80]	70%	100%	100%		70%	90%	100%	100%	100%	100%	100%	100%	90%	100%		100%	90%	100%	100%	100%	AVEFA pre-emergence efficacy (herbicidal activity) (Avena fatua): 60%; POLCO pre-emergence efficacy (herbicidal activity) (Polygonum convolvulus [6]; Dosage 80 g/ha): 100%; SETVI pre-emergence efficacy (herbicidal activity) (Setaria viridis [7]; Dosage 80 g/ha): 100%; post-emergence efficacy ABUTH (Abutilon theophrasti [14]; 80 g/ha): 80%; post-emergence efficacy AMARE (Amaranthus retroflexus [15]; 80 g/ha): 100%; post-emergence efficacy ECHCG (Echinochloa crus-galli [16]): 70%; post-emergence efficacy PHBPU (Ipomoea purpurea; 80 g/ha): 90%; post-emergence efficacy PHBPU (Ipomoea purpurea; 320 g/ha): 100%; post-emergence efficacy LOLMU (Lolium multiflorum [19]; 80 g/ha): 70%; post-emergence efficacy LOLMU (Lolium multiflorum [19]; 320 g/ha): 90%; post-emergence efficacy MATIN (Matricaria inodora [20]; 80 g/ha): 70%; post-emergence efficacy MATIN (Matricaria inodora [20]; 320 g/ha): 90%; post-emergence efficacy POLCO (Polygonum convolvulus [21]; 320 g/ha): 60%; post-emergence efficacy STEME (Stellaria media [17]; 80 g/ha): 100%; post-emergence efficacy VERPE (Veronica persica [18]; 80 g/ha): 90%; post-emergence efficacy VIOTR (Viola tricolor [12]; 80 g/ha): 100%
C/C(=N\O)c1cnc(NC2CCCc3sc(Cl)cc32)nc1C (racemic) [compound 260]	90%	100%	100%	100%	100%	100%	100%	100%	100%	100%	100%	100%	100%	100%		90%	90%	90%	100%	100%	ALOMY pre-emergence efficacy (herbicidal activity) (Alopecurus myosuroides [2]; Dosage 80 g/ha): 70%; AVEFA pre-emergence efficacy (herbicidal activity) (Avena fatua): 90%; ECHCG pre-emergence efficacy (herbicidal activity) (Echinochloa crus-galli [13]; Dosage 320 g/ha): 100%; LOLMU pre-emergence efficacy (herbicidal activity) (Lolium multiflorum [4]; Dosage 80 g/ha): 50%; POLCO pre-emergence efficacy (herbicidal activity) (Polygonum convolvulus [6]; Dosage 80 g/ha): 80%; SETVI pre-emergence efficacy (herbicidal activity) (Setaria viridis [7]; Dosage 80 g/ha): 50%; post-emergence efficacy ABUTH (Abutilon theophrasti [14]; 80 g/ha): 80%; post-emergence efficacy AMARE (Amaranthus retroflexus [15]; 80 g/ha): 90%; post-emergence efficacy ECHCG (Echinochloa crus-galli [16]): 100%; post-emergence efficacy PHBPU (Ipomoea purpurea; 80 g/ha): 70%; post-emergence efficacy PHBPU (Ipomoea purpurea; 320 g/ha): 90%; post-emergence efficacy LOLMU (Lolium multiflorum [19]; 320 g/ha): 70%; post-emergence efficacy MATIN (Matricaria inodora [20]; 80 g/ha): 70%; post-emergence efficacy MATIN (Matricaria inodora [20]; 320 g/ha): 90%; post-emergence efficacy POLCO (Polygonum convolvulus [21]; 80 g/ha): 60%; post-emergence efficacy POLCO (Polygonum convolvulus [21]; 320 g/ha): 60%; post-emergence efficacy SETVI (Setaria viridis [22]): 100%; post-emergence efficacy STEME (Stellaria media [17]; 80 g/ha): 80%; post-emergence efficacy VIOTR (Viola tricolor [12]; 80 g/ha): 70%
Cc1cc2c(s1)CCCC2Nc1nc(N)c(-c2cncc(Cl)c2)c(C(F)F)n1 (racemic) [compound 300]			100%		80%	90%		70%	80%	100%				100%	70%			90%	90%		post-emergence efficacy PHBPU (Ipomoea purpurea; 320 g/ha): 60%; post-emergence efficacy STEME (Stellaria media [17]; 80 g/ha): 60%
Cc1cc2c(s1)CCCC2Nc1nc(N)c(C#N)c(C(C)F)n1 (racemic) [compound 320]			100%			100%	100%	100%		100%		100%		100%	80%	100%	80%	60%	60%	100%	post-emergence efficacy SETVI (Setaria viridis [22]): 60%
Cc1cc2c(s1)CCC[C@H]2Nc1ncc2c(n1)CCCS2(=O)=O [compound 44]	100%	100%	100%	100%	100%	100%	100%	100%	100%	100%	100%	100%			90%	80%	90%	100%	100%	100%	ABUTH pre-emergence efficacy (herbicidal activity) (Abutilon theophrasti [1]): 100%; ALOMY pre-emergence efficacy (herbicidal activity) (Alopecurus myosuroides [2]; Dosage 80 g/ha): 80%; ECHCG pre-emergence efficacy (herbicidal activity) (Echinochloa crus-galli [13]; Dosage 80 g/ha): 100%; ECHCG pre-emergence efficacy (herbicidal activity) (Echinochloa crus-galli [13]; Dosage 320 g/ha): 100%; POLCO pre-emergence efficacy (herbicidal activity) (Polygonum convolvulus [6]; Dosage 80 g/ha): 100%; SETVI pre-emergence efficacy (herbicidal activity) (Setaria viridis [7]; Dosage 80 g/ha): 100%; post-emergence efficacy ECHCG (Echinochloa crus-galli [16]): 100%; post-emergence efficacy PHBPU (Ipomoea purpurea; 320 g/ha): 100%; post-emergence efficacy POLCO (Polygonum convolvulus [21]; 320 g/ha): 80%; post-emergence efficacy SETVI (Setaria viridis [22]): 100%
